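Following 48 hours of exposure in 96-well plates, responses at five concentrations were used to interpolate endpoints linearly. The concentration for full growth arrest is given as TGI.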
Experiments:
Test in all cases: NCI tumour cell line growth inhibition, 48 h
A549 NSCLC = tested on: A549 NSCLC
COLO 205 colon = tested on: COLO 205 colon
HT29 colon = tested on: HT29 colon
IGROV1 ovarian = tested on: IGROV1 ovarian
LOX IMVI melanoma = tested on: LOX IMVI melanoma
MDA-MB-231 breast = tested on: MDA-MB-231 breast
OVCAR-3 ovarian = tested on: OVCAR-3 ovarian
PC-3 prostate = tested on: PC-3 prostate
SNB-19 CNS = tested on: SNB-19 CNS
SR leukemia = tested on: SR leukemia
SW-620 colon = tested on: SW-620 colon
T-47D breast = tested on: T-47D breast
TK-10 renal = tested on: TK-10 renal
UACC-257 melanoma = tested on: UACC-257 melanoma
DMS 273 small cell lung = tested on: DMS 273 small cell lung
HCT-116 colon = tested on: HCT-116 colon
MOLT-4 leukemia = tested on: MOLT-4 leukemia
NCI-H226 lung = tested on: NCI-H226 lung
NCI-H460 lung = tested on: NCI-H460 lung
SNB-78 CNS = tested on: SNB-78 CNS

Row | SMILES | TGI (A549 NSCLC) [µM] | TGI (COLO 205 colon) [µM] | TGI (HT29 colon) [µM] | TGI (IGROV1 ovarian) [µM] | TGI (LOX IMVI melanoma) [µM] | TGI (MDA-MB-231 breast) [µM] | TGI (OVCAR-3 ovarian) [µM] | TGI (PC-3 prostate) [µM] | TGI (SNB-19 CNS) [µM] | TGI (SR leukemia) [µM] | TGI (SW-620 colon) [µM] | TGI (T-47D breast) [µM] | TGI (TK-10 renal) [µM] | TGI (UACC-257 melanoma) [µM] | TGI (DMS 273 small cell lung) [µM] | TGI (HCT-116 colon) [µM] | TGI (MOLT-4 leukemia) [µM] | TGI (NCI-H226 lung) [µM] | TGI (NCI-H460 lung) [µM] | TGI (SNB-78 CNS) [µM]
1 | COC(=O)/C=C\Sc1ccn(/C=C\C(=O)OC)c(=S)n1 | 50.7 | > 100 | 52.9 | 35.2 | 9.35 | 56.7 | 26.7 | 46.5 | 41.6 | 38.8 | 56.5 | 46.1 | 51.1 | > 100 |  |  |  |  |  | 
2 | CC1(C)OP23(NC(=O)OC2(C(F)(F)F)c2ccccc2O3)OC1(C)C (stereo not drawn) | > 100 |  | > 100 |  | > 100 |  | > 100 |  | > 100 |  |  |  | > 100 | > 100 | > 100 | > 100 | > 100 | > 100 | > 100 | > 100
3 | O=C(CCCn1cnc([N+](=O)[O-])n1)NCCn1ccnc1[N+](=O)[O-] | > 100 | > 100 | > 100 | > 100 | > 100 |  | > 100 | > 100 |  | > 100 | > 100 | > 100 | > 100 | > 100 |  |  | > 100 | > 100 | > 100 | 
4 | CN(C)c1ccc(N2C(=S)SC(=Nc3ccccc3)C2=Nc2ccccc2)cc1 |  | > 100 |  | > 100 |  | > 100 | > 100 | > 100 | > 100 | > 100 |  | > 100 |  |  |  | > 100 |  | > 100 | > 100 | 
5 | O=C(Nc1ccccc1F)c1c(O)nc2sccn2c1=O | > 10 | > 10 | > 10 | > 10 | > 10 | > 10 | > 10 | > 10 | > 10 | > 10 | > 10 | > 10 | > 10 |  |  | > 10 | > 10 | > 10 | > 10 | 
6 | COc1ccc2[nH]c(C(=O)N3CC(CCl)c4ccc(N)cc43)cc2c1 (stereo not drawn) | > 86.9 |  | 0.508 |  | 0.601 | 0.545 |  | 10 | > 44.5 | > 100 | > 100 | > 100 | > 100 |  |  |  | > 100 | > 100 | 3.24 | 

— PubChem BioAssay (NCI)
